Columns and labels:
[1] = target: Melanocortin receptor 5 (Homo sapiens, UniProt P33032); format: cell membranes, HEK293, Membrane; conditions: hek293; further: in other assays of this panel Not Active means under 50% inhibition at 10 µM
[2] = target: T1, Alpha-2C adrenergic receptor (Homo sapiens, UniProt P18825); test: DRUGMATRIX: Adrenergic Alpha-2C radioligand binding (ligand: [3H] MK-912); format: cell membranes, Sf9, Membrane; conditions: for Ki: read-out: Ki
T1 sequence (P18825 whole entry): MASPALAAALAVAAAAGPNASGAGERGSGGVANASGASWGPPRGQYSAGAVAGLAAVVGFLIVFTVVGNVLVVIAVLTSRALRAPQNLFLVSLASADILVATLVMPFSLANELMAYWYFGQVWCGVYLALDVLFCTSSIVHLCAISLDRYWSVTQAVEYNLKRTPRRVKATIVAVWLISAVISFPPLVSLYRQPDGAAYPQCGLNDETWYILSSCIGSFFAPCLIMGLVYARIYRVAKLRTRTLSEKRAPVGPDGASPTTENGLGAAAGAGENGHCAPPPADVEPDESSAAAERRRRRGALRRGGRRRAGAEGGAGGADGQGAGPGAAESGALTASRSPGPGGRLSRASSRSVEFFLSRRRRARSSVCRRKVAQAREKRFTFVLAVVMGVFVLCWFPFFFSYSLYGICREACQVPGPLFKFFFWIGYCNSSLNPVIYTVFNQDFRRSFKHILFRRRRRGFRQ

[3] = target: T2, Alpha-1D adrenergic receptor (Homo sapiens, UniProt P25100); format: cell membranes, HEK293, Membrane; conditions: for Ki: read-out: Ki; on all read-outs here: in other assays of this panel Not Active means under 50% inhibition at 10 µM
T2 sequence (P25100 whole entry): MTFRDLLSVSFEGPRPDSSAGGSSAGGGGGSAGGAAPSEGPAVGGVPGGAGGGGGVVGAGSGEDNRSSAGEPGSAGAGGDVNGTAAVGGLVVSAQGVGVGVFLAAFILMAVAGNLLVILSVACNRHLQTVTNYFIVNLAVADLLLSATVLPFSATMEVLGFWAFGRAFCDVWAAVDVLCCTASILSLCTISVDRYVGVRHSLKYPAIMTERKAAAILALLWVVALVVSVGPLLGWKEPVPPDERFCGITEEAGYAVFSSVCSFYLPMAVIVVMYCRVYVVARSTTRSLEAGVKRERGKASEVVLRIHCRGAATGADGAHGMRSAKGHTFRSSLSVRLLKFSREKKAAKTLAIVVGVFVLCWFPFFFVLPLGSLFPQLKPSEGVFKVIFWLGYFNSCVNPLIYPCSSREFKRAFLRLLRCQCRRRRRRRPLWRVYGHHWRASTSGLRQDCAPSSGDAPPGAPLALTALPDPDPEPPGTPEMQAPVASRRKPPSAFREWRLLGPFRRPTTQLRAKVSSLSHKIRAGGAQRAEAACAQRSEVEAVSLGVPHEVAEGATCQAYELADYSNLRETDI

[4] = DRUGMATRIX: Sodium/nucleoside co-transporter radioligand binding (ligand: nitrobenzylthioinosine); format: cell membranes, Cavia porcellus, Dunkin-Hartley, Cerebral cortex, Membrane; conditions: Not Active = under 50% inhibition at 10 µM
[5] = target: T3, 5-hydroxytryptamine receptor 2C (Homo sapiens, UniProt P28335); test: DRUGMATRIX: Serotonin (5-Hydroxytryptamine) 5-HT2C radioligand binding (ligand: [3H] Mesulergine); format: cell membranes, CHO-K1, Membrane; conditions: Not Active = under 50% inhibition at 10 µM; for Ki: read-out: Ki
T3 sequence (P28335 whole entry): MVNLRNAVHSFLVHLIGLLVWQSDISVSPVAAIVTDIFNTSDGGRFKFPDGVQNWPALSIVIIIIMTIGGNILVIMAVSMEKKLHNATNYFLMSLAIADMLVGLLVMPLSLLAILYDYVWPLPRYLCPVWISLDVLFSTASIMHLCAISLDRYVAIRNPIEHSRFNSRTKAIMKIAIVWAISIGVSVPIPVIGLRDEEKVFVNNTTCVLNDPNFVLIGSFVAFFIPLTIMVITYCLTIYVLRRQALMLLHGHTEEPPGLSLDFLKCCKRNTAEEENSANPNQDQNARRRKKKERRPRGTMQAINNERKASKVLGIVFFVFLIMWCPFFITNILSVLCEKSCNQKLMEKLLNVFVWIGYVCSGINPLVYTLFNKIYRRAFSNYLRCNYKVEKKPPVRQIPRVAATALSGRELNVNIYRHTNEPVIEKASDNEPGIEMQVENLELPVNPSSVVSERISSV

[6] = target: Vasopressin V1a receptor (Homo sapiens, UniProt P37288); format: cell membranes, Membrane; conditions: hek293; further: in other assays of this panel Not Active means under 50% inhibition at 10 µM
Sequence of Vasopressin V1a receptor (P37288 whole entry): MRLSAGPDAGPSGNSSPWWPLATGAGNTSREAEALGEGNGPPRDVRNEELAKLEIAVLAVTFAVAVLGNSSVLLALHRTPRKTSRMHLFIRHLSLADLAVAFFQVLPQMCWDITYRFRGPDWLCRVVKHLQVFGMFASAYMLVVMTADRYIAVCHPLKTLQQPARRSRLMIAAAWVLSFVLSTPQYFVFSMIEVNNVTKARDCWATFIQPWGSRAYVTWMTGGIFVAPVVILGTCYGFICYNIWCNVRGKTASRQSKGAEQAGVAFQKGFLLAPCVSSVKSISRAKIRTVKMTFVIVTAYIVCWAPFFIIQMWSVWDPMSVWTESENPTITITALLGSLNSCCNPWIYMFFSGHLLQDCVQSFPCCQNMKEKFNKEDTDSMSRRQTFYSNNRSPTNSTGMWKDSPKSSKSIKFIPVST

Sequence of Melanocortin receptor 5 (P33032 whole entry): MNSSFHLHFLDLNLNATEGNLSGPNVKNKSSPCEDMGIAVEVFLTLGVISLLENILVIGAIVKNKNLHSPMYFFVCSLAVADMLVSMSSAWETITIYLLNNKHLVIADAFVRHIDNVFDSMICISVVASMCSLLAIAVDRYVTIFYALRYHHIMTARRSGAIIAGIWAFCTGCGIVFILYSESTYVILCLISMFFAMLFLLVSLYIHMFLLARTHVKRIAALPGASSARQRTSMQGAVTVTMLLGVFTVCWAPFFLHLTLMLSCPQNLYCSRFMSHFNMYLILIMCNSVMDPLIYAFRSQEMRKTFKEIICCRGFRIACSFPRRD

| Structure (SMILES) | IC50 [1] | IC50 ([2]; sf9) | IC50 ([3]; hek293) | IC50 [4] | Ki [4] | IC50 ([5]; cho-k1) | IC50 [6] | IC50 ([3]; read-out: IC50) | Ki [3] | IC50 ([5]; read-out: IC50) | Ki [5] | IC50 ([2]; read-out: IC50) | Ki [2] |
| --- | --- | --- | --- | --- | --- | --- | --- | --- | --- | --- | --- | --- | --- |
| O=C(O)c1cc(-c2ccc(F)cc2F)ccc1O [DIFLUNISAL] | Not Active | Not Active | Not Active | Not Active | Not Active | Not Active | Not Active |  |  |  |  |  |  |
| CCn1cc(C(=O)O)c(=O)c2cc(F)c(N3CCNC(C)C3)c(F)c21 (centres undefined) [LOMEFLOXACIN] | Not Active | Not Active | Not Active | Not Active | Not Active | Not Active | Not Active |  |  |  |  |  |  |
| CN(C)C(=O)Oc1cccc([N+](C)(C)C)c1.[Br-] [NEOSTIGMINE BROMIDE] | Not Active | Not Active | Not Active | Not Active | Not Active | Not Active | Not Active |  |  |  |  |  |  |
| CN1CCCC(CN2c3ccccc3Sc3ccccc32)C1 (centres undefined) [MEPAZINE] | Not Active | Not Active |  | Not Active | Not Active |  | Not Active | 0.137 µM | 0.067 µM | 0.495 µM | 0.259 µM |  |  |
| ClC(Cl)(Cl)Cl [CARBON TETRACHLORIDE] | Not Active | Not Active | Not Active | Not Active | Not Active | Not Active | Not Active |  |  |  |  |  |  |
| CCN(CC)CCCC(C)Nc1c2ccc(Cl)cc2nc2ccc(OC)cc12 (centres undefined) [QUINACRINE] | Not Active |  |  | Not Active | Not Active | Not Active | Not Active | 2.07 µM | 1.02 µM |  |  | 3.86 µM | 0.56 µM |
| CC[C@H]1[C@@H]2C[C@H]3[C@@H]4N(C)c5ccccc5[C@]45C[C@@H]([C@@H]2[C@H]5O)N3[C@@H]1O [AJMALINE] | Not Active | Not Active | Not Active | Not Active | Not Active | Not Active | Not Active |  |  |  |  |  |  |
| C[C@H]1[C@H](NC(=O)/C(=N\OC(C)(C)C(=O)O)c2csc(N)n2)C(=O)N1S(=O)(=O)O [AZTREONAM] | Not Active | Not Active | Not Active | Not Active | Not Active | Not Active | Not Active |  |  |  |  |  |  |
| CO/N=C(\C(=O)N[C@@H]1C(=O)N2C(C(=O)O)=C(COC(C)=O)CS[C@H]12)c1csc(N)n1 [CEFOTAXIME] | Not Active | Not Active | Not Active | Not Active | Not Active | Not Active | Not Active |  |  |  |  |  |  |
| CC(C)c1c(C(=O)Nc2ccccc2)c(-c2ccccc2)c(-c2ccc(F)cc2)n1CC[C@@H](O)C[C@@H](O)CC(=O)O [ATORVASTATIN] | Not Active | Not Active | Not Active | Not Active | Not Active | Not Active | Not Active |  |  |  |  |  |  |
| CC(C)C[C@H]1C(=O)N2CCC[C@H]2[C@]2(O)O[C@](NC(=O)[C@@H]3C=C4c5cccc6[nH]cc(c56)C[C@H]4N(C)C3)(C(C)C)C(=O)N12 [ERGOCRYPTINE] | Not Active |  |  | Not Active | Not Active |  | Not Active | 0.048 µM | 0.024 µM | 0.147 µM | 0.077 µM | 0.038 µM | 0.00548 µM |
| CCN(C(C)=O)c1cccc(-c2ccnc3c(C#N)cnn23)c1 [ZALEPLON] | Not Active | Not Active | Not Active | Not Active | Not Active | Not Active | Not Active |  |  |  |  |  |  |
| N[C@@H](Cn1ccc(=O)c(O)c1)C(=O)O [L-MIMOSINE] | Not Active | Not Active | Not Active | Not Active | Not Active | Not Active | Not Active |  |  |  |  |  |  |
| Nc1cc(-c2ccncc2)c[nH]c1=O [INAMRINONE] | Not Active | Not Active | Not Active | Not Active | Not Active | Not Active | Not Active |  |  |  |  |  |  |
| NC(=O)c1cccc(N)c1 [3-AMINOBENZAMIDE] | Not Active | Not Active | Not Active | Not Active | Not Active | Not Active | Not Active |  |  |  |  |  |  |
| NC(=O)c1cccnc1 [NIACINAMIDE] | Not Active | Not Active | Not Active | Not Active | Not Active | Not Active | Not Active |  |  |  |  |  |  |
| CCC1=C(C)CN(C(=O)NCCc2ccc(S(=O)(=O)NC(=O)N[C@H]3CC[C@H](C)CC3)cc2)C1=O [GLIMEPIRIDE] | Not Active | Not Active | Not Active | Not Active | Not Active | Not Active | Not Active |  |  |  |  |  |  |
| CC(C)NCC(O)c1ccccc1Cl (centres undefined) [CLORPRENALINE] | Not Active | Not Active | Not Active | Not Active | Not Active | Not Active | Not Active |  |  |  |  |  |  |
| CC(=O)OCC(=O)[C@@]12OC(C)(C)O[C@@H]1C[C@H]1[C@@H]3C[C@H](F)C4=CC(=O)C=C[C@]4(C)[C@@]3(F)[C@@H](O)C[C@@]12C [FLUOCINONIDE] | Not Active | Not Active | Not Active | Not Active | Not Active | Not Active | Not Active |  |  |  |  |  |  |
| COc1cccc2c1C(=O)c1c(O)c3c(c(O)c1C2=O)C[C@@](O)(C(C)=O)C[C@@H]3O[C@H]1C[C@H](N)[C@H](O)[C@H](C)O1 [DAUNORUBICIN] | Not Active | Not Active | Not Active | Not Active | Not Active | Not Active | Not Active |  |  |  |  |  |  |
| COc1ccccc1N | Not Active | Not Active | Not Active | Not Active | Not Active | Not Active | Not Active |  |  |  |  |  |  |
| CC[C@]1(O)C[C@@H]2CN(CCc3c([nH]c4ccccc34)[C@@](C(=O)OC)(c3cc4c(cc3OC)N(C)[C@H]3[C@@](O)(C(N)=O)[C@H](O)[C@]5(CC)C=CCN6CC[C@]43[C@@H]65)C2)C1 [VINDESINE] | Not Active | Not Active | Not Active | Not Active | Not Active | Not Active | Not Active |  |  |  |  |  |  |
| CCOc1nc2cccc(C(=O)O)c2n1Cc1ccc(-c2ccccc2-c2nnn[nH]2)cc1 | Not Active | Not Active | Not Active | Not Active | Not Active | Not Active | Not Active |  |  |  |  |  |  |
| C[S+](C)[O-] [DIMETHYL SULFOXIDE] | Not Active | Not Active | Not Active | Not Active | Not Active | Not Active | Not Active |  |  |  |  |  |  |
| C[C@@H]1O[C@@H](O[C@H]2C[C@@H](O)[C@]3(CO)[C@H]4[C@H](O)C[C@]5(C)[C@@H](C6=CC(=O)OC6)CC[C@]5(O)[C@@H]4CC[C@]3(O)C2)[C@H](O)[C@H](O)[C@H]1O [OUABAIN] | Not Active | Not Active | Not Active | Not Active | Not Active | Not Active | Not Active |  |  |  |  |  |  |
| C#C[C@]1(O)CC[C@H]2[C@@H]3CCC4=CC(=O)CC[C@]4(C)[C@H]3CC[C@@]21C [ETHISTERONE] | Not Active | Not Active | Not Active | Not Active | Not Active | Not Active | Not Active |  |  |  |  |  |  |

From ChEMBL document CHEMBL1909046, “DrugMatrix in vitro pharmacology data”
